From US7125854B2, “Bicyclic carbohydrates as antiprotozoal bioactive for the treatment of infections caused by parasites” (Kemin Pharma B.V.B.A., priority 2003, dated 2006)
Where two headings read alike, the source gives them in different places. Each block holds one compound with its values, some of them ahead of it.

What was measured:
T. brucei rhodesiense [1] = assay: WHO screening against Trypanosoma brucei (Table 1); format: cell-based; conditions: read-out: IC50 T. brucei rhodesiense
Text: (§1) Compound A1 was screened against Trypanosoma brucei by World Health Organization (Switzerland) using its established screening service.

P. falciparum [2] = assay: Screening against P. falciparum (Table 2); format: cell-based, Plasmodium falciparum
T. brucei rhodesiense [3] = assay: Screening against T. brucei rhodesiense (Table 2); format: cell-based, Trypanosoma brucei rhodesiense
T. cruzi [4] = assay: Screening against T. cruzi (Table 2); format: cell-based, Trypanosoma cruzi
[5] = tested on: Leishmania donovani MHOM/ET/67/L82; assay: Leishmania donovani amastigotes in primary peritoneal mouse macrophages, parasite growth after 96 hours; format: cell-based; conditions: 96 hours of incubation, read-out: IC50 L. donovani
Method: One strain of Leishmania spp. (Leishmania.donovani MHOM/ET/67/L82) is used. The strain is maintained in the hamster. Amastigotes are collected from the spleen of an infected hamster and spleen parasite burden is assessed using the Stauber technique or amastigotes are counted in the haemocytometer after 1:100 dilution in trypan blue.
Primary peritoneal mouse (CDI or NMRI) macrophages are collected 1 day after a macrophage production stimulation with an i.p injection of 2 ml of 2% starch in distilled water. All cultures and assays are conducted at 37° C. under an atmosphere of 5% CO2. Ten mg/ml compound stock solutions are prepared as advised by the supplier, otherwise dissolved in 100% DMSO. Stock solutions are kept at 4° C. for a maximum of 2 weeks, thereafter at −20° C. The compounds are pre-diluted to 1 mg/ml. Assays are performed in sterile 16-well tissue culture slides, each well containing 100 μl of the compound dilutions together with 100 μl of macrophage/parasite inoculum (4×10^5 macrophages/ml and 1.2×10^6 parasites/ml). The inoculum is prepared in RPMI-1640 medium, supplemented with 10% heat inactivated fetal calf serum. […] After 96 hours of incubation, parasite growth is microscopically assessed after staining the cells with a 10% Giemsa solution. The results are expressed as IC50 calculated by linear regression analysis. […]

L-6 mammalian cells = assay: Cytotoxicity assay on L-6 mammalian cells; format: cell-based
P. falciparum [6] = assay: WHO screening against P. falciparum (Table 1); format: cell-based; conditions: Plasmodium falciparum; Table 1, WHO screening
Text: as §1

T. cruzi [7] = assay: WHO screening against T. cruzi (Table 1); format: cell-based, Trypanosoma cruzi; conditions: Table 1, WHO screening
sleeping sickness = conditions: cited from earlier work
human cell line (MRC-5) = assay: Cytotoxicity assay on a human cell line (MRC-5); format: cell-based; conditions: read-out: Cytox
[8] = Trypanosoma brucei, RHODESIENSE

SMILES: Cc1ccc(C(=O)Nc2ccc(S(=O)(=O)O)c3cc(S(=O)(=O)O)cc(S(=O)(=O)O)c23)cc1NC(=O)c1cccc(NC(=O)Nc2cccc(C(=O)Nc3cc(C(=O)Nc4ccc(S(=O)(=O)O)c5cc(S(=O)(=O)O)cc(S(=O)(=O)O)c45)ccc3C)c2)c1 [Suramin]
- IC50 (T. brucei rhodesiense [1]; [8]): 210 nM

- IC50 (P. falciparum [2]): > 13300 nM
- IC50 (T. brucei rhodesiense [3]): 20.4 µM
- IC50 (T. cruzi [4]): 14.3 µM
- IC50 [5]: < 980 nM
SMILES: OC1C(Cc2ccccc2)OC2COC(c3ccc(Cl)cc3)OC2C1O (stereo not shown) [Compound A3]
- IC50 (L-6 mammalian cells): 60 µM

- IC50 (P. falciparum [2]; Plasmodium falciparum): 5 nM
- IC50 (P. falciparum [6]): 14 nM
SMILES: CCN(CC)CCCC(C)Nc1ccnc2cc(Cl)ccc12 (stereo not shown) [Chloroquine]

- IC50 ([5]; Leishmania donovani, Macrophage): 470 nM
SMILES: CCCCCCCCCCCCCCCCOP(=O)([O-])OCC[N+](C)(C)C [Miltefosine]

- IC50 (T. cruzi [7]; Trypanosoma cruzi): 1240 nM
SMILES: CC1CS(=O)(=O)CCN1/N=C/c1ccc([N+](=O)[O-])o1 (stereo not shown) [Nifurtimox]

SMILES: Nc1nc(N)nc(Nc2ccc([As]3SCC(CO)S3)cc2)n1 (stereo not shown) [Melarsoprol]
- IC50 (T. brucei rhodesiense [3]; [8]): 0.01 µM
- patients treated killed outright (sleeping sickness; patients, injected): 3–10%
- patients the drug fails to cure (sleeping sickness; some areas of Africa (Omugo, Uganda; Ibba, South Sudan)): 25–30%

SMILES: O[C@@H]1[C@@H](O)[C@H](Sc2ccccc2)O[C@@H]2CO[C@@H](c3ccccc3)O[C@@H]12 [Compound A1]
- IC50 (T. cruzi [7]): > 32000 nM
- IC50 (T. brucei rhodesiense [1]; Table 1, WHO screening): 187 nM
- IC50 (human cell line (MRC-5)): > 32 µM
